Assays:
Format in all cases: physicochemical
[1] = Particle size distribution by laser diffraction; settings: API lot
Description: The particle size distribution of crystalline 3-((1R,3R)-1-(2,6-difluoro-4-((1-(3-fluoropropyl)azetidin-3-yl)amino)phenyl)-3-methyl-1,3,4,9-tetrahydro-2H-pyrido[3,4-b]indol-2-yl)-2,2-difluoropropan-1-ol tartrate of the invention was analyzed by laser diffraction as described in the USP <429> for Laser Diffraction Measurement of Particle Size and in the European Pharmacopoeia chapter 2.9.31 Particle size analysis by Laser Diffraction. Details of the apparatus used and measurements are given in Example 3.
For the measurement, a Malvern MasterSizer 3000 device from Malvern, UK, coupled with a liquid dispersion unit Hydro MV®, Malvern, UK was used. The crystalline Giredestrant tartrate as obtained from Example 1 or 2 was dispersed in dispersion medium consisting in technical grade n-heptane with 0.2% w/w.-% Span 85 (Sorbitane trioleate, e.g. Fluka/Sigma Cat. Nr. 85549 or equivalent) non-saturated.
Procedure: the crystalline Giredestrant tartrate is directly added in the Hydro MV dispersion unit and stirred at 2500 rpm achieving an appropriate optical concentration (between 5% and 25% optical concentrations).
Measurement: The test dispersion was measured and the cumulative volume dispersion was determined using the laser diffraction instrument mentioned above in accordance with the instruction manual. Measurements were performed after 2 minutes stirring time. The Fraunhofer approximation was used for the particle diameters calculations, Opaque Particle was used for the Particle type and General purpose was used for the Analysis model. The background and the measuring duration were set at 30 seconds.
Three independent samples were measured one time. The average particle size distribution in volume at the undersize values of 10%, 50% and 90% (×10, ×50 and ×90) percentiles were evaluated from the cumulative distribution.
(§1) The following table illustrates the improved manufacturability properties of the crystalline API that is prepared according to the process of the present invention (lot “BS2008SA02”). The E1 lot was prepared according to the process described in WO2019245974.

[2] = BET surface area of API lots; settings: API lot
Description: as §1

[3] = Bulk density, tapped density and flowability of API; settings: for Bulk Density / Tapped Density: API lot
Description: as §1

[4] = Effect of compression on API degradation (HPLC); settings: 60° C./11% RH, containers open, up to 4 weeks, tartrate
Description: The effect of compression on API degradation was investigated. Samples of uncompressed API (neat API powder as-is) and compressed API (compact) were aged at 60° C./11% RH with containers open for up to 1 month. Samples were assayed by HPLC (see Example 10). […] The following HPLC method was used to measure the RRCs described herein: [table]

[5] = Form B as prepared per WO2019245974

D10 [1]	D50 [1]	D90 [1]	BET SA [2]	Bulk Density [3]	Tapped Density [3]	growth of the impurity at RRT=0.58 ([4]; listed as compressed API)	bulk density (in words) [3, 5]	flowability [3, 5]	SMILES	growth of the impurity at RRT=0.58 ([4]; listed as uncompressed API)
2 μm	8 μm	27 μm	2.9 m2/g	0.31 g/mL	0.41 g/mL				C[C@@H]1Cc2c([nH]c3ccccc23)[C@@H](c2c(F)cc(NC3CN(CCCF)C3)cc2F)N1CC(F)(F)CO.O=C(O)C(O)C(O)C(=O)O [711-005-5467-001 (E1)]	
30 μm	41 μm	56 μm	1.7 m2/g	0.57 g/mL	0.64 g/mL				C[C@@H]1Cc2c([nH]c3ccccc23)[C@@H](c2c(F)cc(NC3CN(CCCF)C3)cc2F)N1CC(F)(F)CO.O=C(O)C(O)C(O)C(=O)O [BS2008SA02]	
						faster growth rate	low bulk density	poor flowability	C[C@@H]1Cc2c([nH]c3ccccc23)[C@@H](c2c(F)cc(NC3CN(CCCF)C3)cc2F)N1CC(F)(F)CO.O=C(O)C(O)C(O)C(=O)O [giredestrant tartrate, 3-((1R,3R)-1-(2,6-difluoro-4-((1-(3-fluoropropyl)azetidin-3-yl)amino)phenyl)-3-methyl-1,3,4,9-tetrahydro-2H-pyrido[3,4-b]indol-2-yl)-2,2-difluoropropan-1-ol tartrate]	growth of the impurity at RRT=0.58 was observed
